Experimental data taken from patent US9096559B2, “4-carboxybenzylamino derivatives as histone deacetylase inhibitors” (Merck Sharp & Dohme Corp., priority 2007, dated 2015).

Columns and labels:
[1] = molecular target: histone deacetylase, subtype 1 (HDAC1) (Homo sapiens (Human), UniProt Q13547); assay: HDAC1-Flag in vitro deacetylation assay; type: biochemical; details: IP = inflection point; read-out: HDAC1 IP (inflection point)
Protocol: Novel compounds were tested for their ability to inhibit histone deacetylase, subtype 1 (HDAC1) using an in vitro deacetylation assay. The enzyme source for this assay was an epitope-tagged human HDAC1 complex immuno-purified from stably expressing mammalian cells. The substrate consisted of a commercial product containing an acetylated lysine side chain (BIOMOL Research Laboratories, Inc., Plymouth Meeting, Pa.). Upon deacetylation of the substrate by incubation with the purified HDAC1 complex, a fluorophore is produced that is directly proportional to the level of deacetylation.

[2] = test system: human cervical cancer (HeLa) and colon carcinoma (HCT116) cells; assay: ATP (Vialight) cell proliferation assay, 72 hr; type: cell-based; details: IP = inflection point, cell line not given, read-out: Prol-72 hr IP (inflection point)
Protocol: The novel compounds of the present invention were tested for their ability to inhibit proliferation of the human cervical cancer (HeLa) and colon carcinoma (HCT116) cells.
In this assay, also referred to as the Vialight Assay, cellular ATP levels are measured as a means of quantifying cellular proliferation. This assay makes use of a bioluminescent method from Cambrex (ViaLight PLUS, cat. #LT07-121). In the presence of ATP, luciferase converts luciferin to oxyluciferin and light. The amount of light produced (emission at 565 nm) is measured and correlates with a relative amount of proliferation. Human cervical cancer (HeLa) or colon carcinoma (HCT116) cells were incubated with vehicle or increasing concentrations of compound for 48, 72 or 96 hours. Cell proliferation was quantified by adding the cell lysis reagent (provided in the Vialight assay kit) directly to culture wells, followed by addition of the ATP-monitoring reagent (containing luciferase/luciferin). The amount of light produced is then measured (emission at 565 nm). The quantity of light produced, as measured by […], is directly proportional to the number of living cells in culture.

Sequence of histone deacetylase, subtype 1 (HDAC1) (Q13547 whole entry): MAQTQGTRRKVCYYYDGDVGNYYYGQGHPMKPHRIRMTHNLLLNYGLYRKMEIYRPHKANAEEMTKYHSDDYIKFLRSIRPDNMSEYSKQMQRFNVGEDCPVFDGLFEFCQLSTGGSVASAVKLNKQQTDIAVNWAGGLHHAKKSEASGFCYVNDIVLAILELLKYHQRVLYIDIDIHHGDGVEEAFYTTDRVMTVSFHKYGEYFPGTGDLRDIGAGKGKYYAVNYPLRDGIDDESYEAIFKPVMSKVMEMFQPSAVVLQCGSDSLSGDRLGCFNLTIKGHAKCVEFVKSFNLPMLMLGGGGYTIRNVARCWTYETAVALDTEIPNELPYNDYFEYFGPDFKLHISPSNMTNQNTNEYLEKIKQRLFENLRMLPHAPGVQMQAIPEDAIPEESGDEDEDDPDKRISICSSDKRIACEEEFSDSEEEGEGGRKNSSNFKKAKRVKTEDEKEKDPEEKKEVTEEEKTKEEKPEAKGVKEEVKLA

Compound | IC50 [1] [nM] | IC50 [2] [nM]
Nc1ccc(-c2ccccc2)cc1NC(=O)c1ccc(CNC(=O)C2CCCC2)cc1 [Example 33, N-(4-aminobiphenyl-3-yl)-4-{[(cyclopentylcarbonyl)amino]methyl}benzamide] | 21 | 200
Nc1ccc(-c2ccccc2)cc1NC(=O)c1ccc(CNC(=O)Cc2ccccc2)cc1 [Example 34, N-(4-aminobiphenyl-3-yl)-4-{[(phenylacetyl)amino]methyl}benzamide] | 72 | 310
Nc1ccc(-c2ccccc2)cc1NC(=O)c1ccc(CNC(=O)c2ccccc2)cc1 [Example 35, N-(4-aminobiphenyl-3-yl)-4-{[(phenylcarbonyl)amino]methyl}benzamide] | 19 | 160
CC(=O)NCc1ccc(C(=O)Nc2cc(-c3cccs3)ccc2N)cc1 [Example 36, 4-[(acetylamino)methyl]-N-[2-amino-5-(2-thienyl)phenyl]benzamide] | 11 | 120
CCC(=O)NCc1ccc(C(=O)Nc2cc(-c3cccs3)ccc2N)cc1 [Example 37, N-[2-amino-5-(2-thienyl)phenyl]-4-[(propanoylamino)methyl]benzamide] | 12 | 130
CCCC(=O)NCc1ccc(C(=O)Nc2cc(-c3cccs3)ccc2N)cc1 [Example 38, N-[2-amino-5-(2-thienyl)phenyl]-4-[(butanoylamino)methyl]benzamide] | 12 | 150
Nc1ccc(-c2cccs2)cc1NC(=O)c1ccc(CNC(=O)C2CC2)cc1 [Example 39, N-[2-amino-5-(2-thienyl)phenyl]-4-{[(cyclopropylcarbonyl)amino]methyl}benzamide] | 15 | 96
CC(C)C(=O)NCc1ccc(C(=O)Nc2cc(-c3cccs3)ccc2N)cc1 [Example 40, N-[2-amino-5-(2-thienyl)phenyl]-4-{[(2-methylpropanoyl)amino]methyl}benzamide] | 16 | 150
CC(C)(C)C(=O)NCc1ccc(C(=O)Nc2cc(-c3cccs3)ccc2N)cc1 [Example 41, N-[2-amino-5-(2-thienyl)phenyl]-4-{[(2,2-dimethylpropanoyl)amino]methyl}benzamide] | 16 | 170
CC(C)CC(=O)NCc1ccc(C(=O)Nc2cc(-c3cccs3)ccc2N)cc1 [Example 42, N-[2-amino-5-(2-thienyl)phenyl]-4-{[(3-methylbutanoyl)amino]methyl}benzamide] | 15 | 120
Nc1ccc(-c2cccs2)cc1NC(=O)c1ccc(CNC(=O)C2CCC2)cc1 [Example 43, N-[2-amino-5-(2-thienyl)phenyl]-4-{[(cyclobutylcarbonyl)amino]methyl}benzamide] | 11 | 130
Nc1ccc(-c2cccs2)cc1NC(=O)c1ccc(CNC(=O)CCc2ccccc2)cc1 [Example 44, N-[2-amino-5-(2-thienyl)phenyl]-4-{[(3-phenylpropanoyl)amino]methyl}benzamide] | 24 | 200
Nc1ccc(-c2cccs2)cc1NC(=O)c1ccc(CNC(=O)C2CCCC2)cc1 [Example 46, N-[2-amino-5-(2-thienyl)phenyl]-4-{[(cyclopentylcarbonyl)amino]methyl}benzamide] | 20 | 140
Nc1ccc(-c2cccs2)cc1NC(=O)c1ccc(CNC(=O)Cc2ccccc2)cc1 [Example 47, N-[2-amino-5-(2-thienyl)phenyl]-4-{[(phenylacetyl)amino]methyl}benzamide] | 16 | 150
Nc1ccc(-c2cccs2)cc1NC(=O)c1ccc(CNC(=O)c2ccccc2)cc1 [Example 48, N-[2-amino-5-(2-thienyl)phenyl]-4-{[(phenylcarbonyl)amino]methyl}benzamide] | 13 | 110
Nc1ccc(-c2cccs2)cc1NC(=O)c1ccc(CNC(=O)Cc2cccnc2)cc1 [Example 49, N-[2-amino-5-(2-thienyl)phenyl]-4-{[(pyridin-3-ylacetyl)amino]methyl}benzamide] | 10 | 170
Nc1ccc(-c2ccccc2)cc1NC(=O)c1ccc(CNC(=O)Cc2ccccn2)cc1 [Example 50, N-(4-aminobiphenyl-3-yl)-4-{[(pyridin-2-ylacetyl)amino]methyl}benzamide] | 19 | 300

Compound | IC50 [1] [nM] | IC50 [2] [nM]
Nc1ccc(-c2ccccc2)cc1NC(=O)c1ccc(CNC(=O)Cc2cccnc2)cc1 [Example 51, N-(4-aminobiphenyl-3-yl)-4-{[(pyridin-3-ylacetyl)amino]methyl}benzamide] | 140 | 2100
Nc1ccc(-c2ccccc2)cc1NC(=O)c1ccc(CNC(=O)Cc2ccncc2)cc1 [Example 52, N-(4-aminobiphenyl-3-yl)-4-{[(pyridin-4-ylacetyl)amino]methyl}benzamide] | 15 | 250
Nc1ccc(-c2ccccc2)cc1NC(=O)c1ccc(CNC(=O)CCc2cccnc2)cc1 [Example 53, N-(4-aminobiphenyl-3-yl)-4-{[(3-pyridin-3-ylpropanoyl)amino]methyl}benzamide] | 16 | 340
Nc1ccc(-c2cccs2)cc1NC(=O)c1ccc(CNC(=O)Cc2ccccn2)cc1 [Example 54, N-[2-amino-5-(2-thienyl)phenyl]-4-{[(pyridin-2-ylacetyl)amino]methyl}benzamide] | 12 | 160
Nc1ccc(-c2cccs2)cc1NC(=O)c1ccc(CNC(=O)Cc2ccncc2)cc1 [Example 55, N-[2-amino-5-(2-thienyl)phenyl]-4-{[(pyridin-4-ylacetyl)amino]methyl}benzamide] | 18 | 160
Nc1ccc(-c2cccs2)cc1NC(=O)c1ccc(CNC(=O)CCc2cccnc2)cc1 [Example 56, N-[2-amino-5-(2-thienyl)phenyl]-4-{[(3-pyridin-3-ylpropanoyl)amino]methyl}benzamide] | 13 | 160
Nc1ccc(-c2cccs2)cc1NC(=O)c1ccc(CNC(=O)[C@@H]2CCCN2)cc1 [Example 57, (2S)-N-[4-({[2-amino-5-(2-thienyl)phenyl]amino}carbonyl)benzyl]pyrrolidine-2-carboxamide] | 18 | 280
Nc1ccc(-c2ccccc2)cc1NC(=O)c1ccc(CNC(=O)[C@@H]2CCCN2)cc1 [Example 58, (2S)-N-(4-{[(4-aminobiphenyl-3-yl)amino]carbonyl}benzyl)pyrrolidine-2-carboxamide] | 24 | 380
Nc1ccc(-c2ccccc2)cc1NC(=O)c1ccc(CNC(=O)OCc2ccccn2)cc1 [Example 59, pyridin-2-ylmethyl[(4-{[(4-aminobiphenyl-3-yl)amino]carbonyl}phenyl)methyl]carbamate] | 20 | 440
CN(C)S(=O)(=O)NCc1ccc(C(=O)Nc2cc(-c3cccs3)ccc2N)cc1 [Example 60, N-[2-amino-5-(2-thienyl)phenyl]-4-({[(dimethylamino)sulfonyl]amino}methyl)benzamide] | 17 | 260
Nc1ccc(-c2ccccc2)cc1NC(=O)c1ccc(CNc2ccncc2)cc1 [Example 61, N-(4-amino-3-biphenylyl)-4-[(4-pyridinylamino)methyl]benzamide] | 10 | 1700
CN(Cc1ccc(C(=O)Nc2cc(-c3ccccc3)ccc2N)cc1)c1ccncc1 [Example 62, N-(4-amino-3-biphenylyl)-4-{[methyl(4-pyridinyl)amino]methyl}benzamide] | 10 | 3600
Cc1c(CNCc2ccc(C(=O)Nc3cc(-c4ccccc4)ccc3N)cc2)cnn1C [Example 63, N-(4-amino-3-biphenylyl)-4-({[(1,5-dimethyl-1H-pyrazol-4-yl)methyl]amino}methyl)benzamide] | 13 | 670
CNCCCN(C)Cc1ccc(C(=O)Nc2cc(-c3ccccc3)ccc2N)cc1 [Example 64, N-(4-amino-3-biphenylyl)-4-({methyl[3-(methylamino)propyl]amino}methyl)benzamide] | 18 | 540
CC(C)CNCc1ccc(C(=O)Nc2cc(-c3ccccc3)ccc2N)cc1 [Example 65, N-(4-amino-3-biphenylyl)-4-[(isobutylamino)methyl]benzamide] | 35 | 900
COCC(C)NCc1ccc(C(=O)Nc2cc(-c3ccccc3)ccc2N)cc1 (centres unmarked) [Example 66, N-(4-amino-3-biphenylyl)-4-{[(2-methoxy-1-methylethyl)amino]methyl}benzamide] | 23 | 1100
Nc1ccc(-c2ccccc2F)cc1NC(=O)c1ccc(CNc2ccncc2)cc1 [Example 67, N-(4-amino-2′-fluoro-3-biphenylyl)-4-[(4-pyridinylamino)methyl]benzamide] | 23 | 2100
